Data published in patent publication US11517016B2, “Agrochemical combinations” (UPL LTD, priority 2017, dated 2022).

Columns and labels:
fruit borer = experiment: Trials of Chlorantraniliprole and Orthosilicic acid on controlling fruit borer; type: in vivo; details: for Percent fruit Borer control Mean: Mean of A-10, B-10, C-10
Experimental: Trials were conducted to test the efficacy of the combination of Chlorantraniliprole and Orthosilicic acid on controlling fruit borer at different dosages.

Early Blight = experiment: Trials of Chlorantraniliprole+Mancozeb+Orthosilicic acid on Early Blight control; type: in vivo
Experimental: Trials were conducted to test the efficacy of the combination of Chlorantraniliprole+Mancozeb+Orthosilicic acid on Early Blight control: […]

Orthosilicic acid [OSA]
Percent fruit Borer control A-10 (fruit borer; dose 750 gm-ml/ha): 2.1% | Percent fruit Borer control B-10 (fruit borer; dose 750 gm-ml/ha): 3.6% | Percent fruit Borer control C-10 (fruit borer; dose 750 gm-ml/ha): 4.4% | Percent fruit Borer control Mean (fruit borer; dose 750 gm-ml/ha): 3.37% | Per Cent Early Blight Control (PDC) A-10 (Early Blight; T-7, dose 750 gm-ml/ha): 9.38% | Per Cent Early Blight Control (PDC) B-10 (Early Blight; T-7, dose 750 gm-ml/ha): 11.57% | Per Cent Early Blight Control (PDC) C-10 (Early Blight; T-7, dose 750 gm-ml/ha): 13.95% | Per Cent Early Blight Control (PDC) Mean (Early Blight; T-7, dose 750 gm-ml/ha): 11.63% | Effect of addition on effectiveness of the combination of chlorantraniliprole+Mancozeb against Early blight (Early Blight; added to Chlorantraniliprole+Mancozeb): act as synergist

Mancozeb
Per Cent Early Blight Control (PDC) A-10 (Early Blight; T-6, dose 2000 gm-ml/ha): 72.26% | Per Cent Early Blight Control (PDC) B-10 (Early Blight; T-6, dose 2000 gm-ml/ha): 77.04% | Per Cent Early Blight Control (PDC) C-10 (Early Blight; T-6, dose 2000 gm-ml/ha): 81.17% | Per Cent Early Blight Control (PDC) Mean (Early Blight; T-6, dose 2000 gm-ml/ha): 76.82%

CNC(=O)c1cc(Cl)cc(C)c1NC(=O)c1cc(Br)nn1-c1ncccc1Cl [Chlorantraniliprole]
Percent fruit Borer control A-10 (fruit borer; dose 150 gm-ml/ha): 73.8% | Percent fruit Borer control B-10 (fruit borer; dose 150 gm-ml/ha): 85.4% | Percent fruit Borer control C-10 (fruit borer; dose 150 gm-ml/ha): 87.8% | Percent fruit Borer control Mean (fruit borer; dose 150 gm-ml/ha): 82.33% | Per Cent Early Blight Control (PDC) A-10 (Early Blight; T-5, dose 150 gm-ml/ha): 04.52% | Per Cent Early Blight Control (PDC) B-10 (Early Blight; T-5, dose 150 gm-ml/ha): 02.39% | Per Cent Early Blight Control (PDC) C-10 (Early Blight; T-5, dose 150 gm-ml/ha): 02.76% | Per Cent Early Blight Control (PDC) Mean (Early Blight; T-5, dose 150 gm-ml/ha): 3.22%
